Test results published in patent publication US5061713A, “Analgesic oxazolopyridine compounds” (Science et Organization, priority 1989, dated 1991).

Tests used:
writhing movements = assay: analgesic activity, phenyl-p-benzoquinone writhing movements (technique derived from Siegmund); type: in vivo; conditions: Mus musculus; mice, oral, 1 hour before i.p. phenyl-p-benzoquinone; counted 5th to 10th minute; read-out: ED50, the dose producing a 50% activity (% decrease in the number of writhing movements)
Procedure: The activity against pain was investigated in mice (23-25 g) according to a protocol derived from the technique described by SIEGMUND (SIEGMUND E.A., R. A. CADMUS & GOLU, J. Pharm. Exp. Ther. 119, 184, 1957). The mice, randomized in batches of 12 animals, received the treatment orally (excipient for the controls) 1 hour before the intraperitoneal injection of a 0.02% aqueous-alcoholic solution of phenyl-p-benzoquinone (Sigma). The writhing movements are counted between the 5th and 10th minute after injection.
The percentage activity obtained was evaluated for each dose (% decrease in the number of writhing movements in the treated animals relative to the controls). An ED50, the dose producing a 50% activity, was determined for each product.

edema = assay: anti-inflammatory activity, acute inflammation induced by carrageenan in the rat hind foot (method of Winter); type: in vivo; conditions: rats, 1 hour before carrageenan, edema determined 3 hours after injection, read-out: ED30, the dose producing a 30% activity (percentage decrease in the mean edema)
Procedure: The anti-inflammatory potential of the compounds was investigated on a model of acute inflammation induced by the subcutaneous injection of a solution of carrageenan into the rat hind foot, according to a technique based on the method of WINTER, C.A., E. A. RISLEY and G. N. NUSS (Proc. Soc. Exp. Med. 111, 554, 1962). The rats (100-120 g), randomized in batches of 8, were treated (including the controls, which receive excipient) 1 hour before the local injection of a 0.5% suspension of carrageenan (Sigma type IV; 0.1 ml per rat). The edema is determined 3 hours after injection, by plethysmometric measurement (UGO BASILE water plethysomometer) of the volume of each of the hind feet (edema=volume of the inflamed foot-volume of the non-inflamed foot).
The percentage activity corresponds to the percentage decrease in the mean edema of the batch compared with the mean of the corresponding control batch. An ED30, the dose producing a 30% activity, was determined.

Row | Structure (SMILES) | ED50 (writhing movements) [mg/kg] | ED30 (edema) [mg/kg]
1 | CCCC(=O)c1ccnc2nc(-c3ccccc3)oc12 [Example 2, 2-PHENYL-7-BUTYRYLOXAZOLO[4,5-b]PYRIDINE] | ~5 | –
2 | Fc1ccccc1-c1nc2ncccc2o1 [Example 6 of U.S. Pat. No. 4,038,396, 2-(2-fluorophenyl)oxazolo[4,5-b]pyridine] | ~12 | 50
3 | CCCC(=O)c1ccnc2nc(-c3ccccc3F)oc12 [Example 6, 2-(2-FLUOROPHENYL)-7-BUTYRYLOXAZOLO[4,5-b]PYRIDINE] | ~8 | –
